Legend:
Human NLRX1 (NLRX1-WT) = target: T1, Human NLRX1 (NLRX1-WT) (Homo sapiens, UniProt Q86UT6); experiment: Surface plasmon resonance binding to NLRX1-WT
T1 construct: made in house; host or cells: Pichia pastoris
Procedure: (§1) NLRX1 production and purification. Human NLRX1 (www.uniprot.org; UniProtKB—Q86UT6 (NLRX1 HUMAN)) was cloned into E. coli, amplified and transfected in Pichia pastoris. P. pastoris was plated onto adenine selective media. Stable transfected colonies were selected and grown within YPD broth at 30° C. for 24 hours, 240 RPM shaking. Starter culture was used to inoculate base media (1% yeast extract, 2% peptone, 1% sorbitol, 2% yeast nitrogen base) containing biotin and buffered with potassium phosphate. Inoculated base media was incubated for 48 hours at 30° C., 240 RPM. P. pastoris was then pelleted by centrifugation and resuspended in expression media (1% sorbitol, 2% yeast nitrogen base) containing biotin and buffered with potassium phosphate. Culture was induced daily for protein production through addition of methanol and incubated for a total of 4 days at 28° C., 240 RPM. After incubation, cells were pelleted by centrifugation and lysed by sonication. Recombinant NLRX1 protein was purified by fast protein liquid chromatography (AktaPrime) using immobilized metal affinity chromatography. Fractions of protein were eluted in 1 mL aliquots and evaluated for NLRX1 content. A mutated NLRX1 protein was generated using similar methods to disrupt binding within the predicted binding site through altering four residues to alanine (D677A, F680A, F681A, and E684A).
(§2) A Biacore T200 was used to evaluate binding to the NLRX1 protein. NLRX1-WT and NLRX1-Mutant were used as proteins to immobilize onto the CM5 sensor chip. NLRX1-WT was diluted in 10 mM sodium acetate buffer at pH 4.0 and immobilized onto the flow cell to a level of ˜3700 RU, using standard amine coupling chemistry. NLRX1-Mutant was diluted in 10 mM sodium acetate buffer at pH 4.0 and immobilized onto the flow cell to a level of ˜3100 RU, using standard amine coupling chemistry. 20 mM MOPS, 150 mM NaCl, 5 mM sodium acetate, 1 mM EDTA, 0.05% Tween-20, pH 8.0 buffer (Running buffer) was used as the immobilization running buffer. Based on the immobilized response values, theoretical Rmax values were calculated. The Rmax values assume 1:1 interaction mechanism. Overnight kinetics were performed for all analytes binding to the immobilized proteins. The kinetics experiments were performed in the μL/min. presence of running buffer+1% DMSO. The flow rate of all solutions was maintained at 50 Analyte concentrations were 0 μM, 2.5 μM, 5 μM 10 μM 20 μM and 40 μM.

[1] = target: T2, mutated NLRX1 protein (D677A, F680A, F681A, E684A) (Homo sapiens, UniProt Q86UT6, D677A/E684A/F680A/F681A); experiment: Surface plasmon resonance binding to NLRX1-Mutant
T2 construct: made in house; host or cells: Pichia pastoris (by 'similar methods')
Procedure: as §1
as §2, with “The Rmax values assume 1:1 interaction mechanism. Overnight kinetics were performed for all analytes binding to the immobilized proteins. The kinetics experiments were performed in the μL/min. presence of running buffer+1% DMSO. The flow rate of all solutions was maintained at 50 Analyte concentrations were 0 μM, 2.5 μM, 5 μM 10 μM 20 μM and 40 μM.” left out

CD4+ T cells = experiment: Immunological screening in vitro in CD4+ splenocytes, flow cytometry; format: cell-based, C57BL/6 mice; conditions: for proportion of IFNγ producing (IFNγ+) CD4+ T cells / proportion of TNFα producing (TNFα+) CD4+ T cells: wild-type cells, 48 h, PMA and ionomycin; for size and dose dependence of the effect on TNFα producing and IFNγ producing cells: within the range tested
Excerpt: Spleens were excised from C57BL/6 mice. Spleens were crushed between the frosted ends of microscope slides and filtered to provide a cellular suspension. Red blood cells were lysed through hypotonic lysis. Remaining cells were washed and filtered. CD4+ T cells were enriched within the suspension using magnetic sorting based negative selection. Cells were collected and plated within 96 well plates coated with anti-CD3 and cultured in the presence of NX-13, NX-37, NX-43, NX-44, or NX-50 at 0, 0.1, 1 or 10 micromolar; NX-53, NX-54, NX-55, or NX-56 at 0, 0.1, or 1 micromolar; or NX-45 at 10, 50 or 100 nanomolar for 48 h. During the last 6 h of culture, cells were stimulated with phorbol 12-myristate-13-acetate (PMA) and ionomycin.
Cells were collected from 96 well plates and stained with a cocktail of antibodies for immunophenotyping by flow cytometry. Culture supernatant was collected and assayed for cytokine concentrations by cytometric bead array. Data was captured on a BD FACS Celesta and analyzed using FacsDiva.

CT26 carcinoma cells = experiment: CT26 injected solid tumor model; format: in vivo, BALB/c mice
Procedure: (§3) Adult BALB/c mice were injected with 5×10^6 CT26 carcinoma cells subcutaneously in the hind flank. Mice were treated daily with NX-43 at 40 mg/kg via gavage beginning on day 9. Mice were weighed daily, and tumor diameter was measured every 3 days up to day 21. Tumors were collected at weighed at necropsy. A second mouse model was used. APC^min/+ mice were administered DSS in drinking water beginning at 5 weeks of age. Mice were challenged with DSS for a total of 5 days prior to return of standard drinking water. After DSS, mice were treated with NX-43 (40 mg/kg) by oral gavage for four weeks. After four weeks, colons were excised and washed. Number of polyps were counted, and colon weights were obtained.
Total RNA from tumors and lymph nodes can be generated using the Qiagen RNeasy mini kit. cDNA can be generated using the BioRad iScript cDNA synthesis kit. Standard curves can be generated by serial dilution of purified product from a standard PCR reaction with Taq DNA polymerase followed by purification using the Qiagen MinElute PCR purification kit. Expression levels can be obtained from quantitative real-time PCR with SybrGreen supermix on a BioRad CFX96 Thermal cycler followed by normalization to expression of β-actin. Gene expression can be measured for genes marking immune activation such as inflammatory cytokines or surface receptors, immune suppression such as CTLA-4, PD-1, or ARG-1, and tumor growth and metastasis.
H&E stained tumor and lymph node sections can be prepared from tissue collected into 10% buffered formalin and embedded in paraffin. Slides can be examined by a board-certified veterinary pathologist via an Olympus microscope and images will be collected with Image-Pro software. Samples can be scored and evaluated for presence of tumor infiltrating leukocytes, areas of necrosis and proportion of proliferating tumor cells.
Tumors and lymph nodes can be collected into RPMI/FBS buffer containing collagenase (300 U/mL) and DNase (50 U/mL) for digestion. Tissues can be digested for 60 minutes under stirring at 37° C. […]

[2] = tested on: APC^min/+ model of colorectal cancer; experiment: APCmin/+ model of colorectal cancer; format: in vivo, mice; conditions: 40 mg/kg oral, four weeks
Procedure: as §3

[3] = target: T3, NLRX1 (C terminus, pdb: 3UN9) (Homo sapiens, UniProt Q86UT6); conditions: low affinity NLRX1 ligand, published value; cited from earlier work
T3 construct: the published structure for the C terminus of NLRX1 (pdb: 3UN9)

[4] = tested at 10, 50 and 100 nanomolar

T2 sequence (Q86UT6 87-975 D677A/F680A/F681A/E684A): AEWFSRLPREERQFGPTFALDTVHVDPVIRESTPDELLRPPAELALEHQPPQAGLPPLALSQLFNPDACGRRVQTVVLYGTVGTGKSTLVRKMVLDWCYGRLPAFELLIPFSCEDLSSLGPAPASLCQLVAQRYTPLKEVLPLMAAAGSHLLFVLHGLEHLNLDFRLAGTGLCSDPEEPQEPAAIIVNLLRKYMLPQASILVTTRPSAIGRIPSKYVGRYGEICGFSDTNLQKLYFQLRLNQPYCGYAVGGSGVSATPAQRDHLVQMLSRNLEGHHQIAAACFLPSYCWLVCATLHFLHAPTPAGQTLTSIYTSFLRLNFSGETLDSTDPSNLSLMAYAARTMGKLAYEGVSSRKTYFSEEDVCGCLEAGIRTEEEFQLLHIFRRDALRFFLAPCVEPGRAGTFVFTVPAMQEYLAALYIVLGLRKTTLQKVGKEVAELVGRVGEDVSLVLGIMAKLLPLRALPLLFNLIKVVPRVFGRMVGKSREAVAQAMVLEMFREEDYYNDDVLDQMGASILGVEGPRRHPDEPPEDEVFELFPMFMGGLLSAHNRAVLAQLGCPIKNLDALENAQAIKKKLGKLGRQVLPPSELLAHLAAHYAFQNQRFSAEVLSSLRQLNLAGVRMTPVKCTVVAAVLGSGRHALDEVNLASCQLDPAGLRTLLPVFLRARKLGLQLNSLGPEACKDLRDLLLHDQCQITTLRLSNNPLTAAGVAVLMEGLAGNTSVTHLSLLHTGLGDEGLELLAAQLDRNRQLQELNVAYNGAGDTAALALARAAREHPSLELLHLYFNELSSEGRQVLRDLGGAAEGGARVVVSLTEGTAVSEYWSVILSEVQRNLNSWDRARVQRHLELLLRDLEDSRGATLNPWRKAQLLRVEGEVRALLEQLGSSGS
T1 sequence (Q86UT6 87-975): as the sequence (Q86UT6 87-975 D677A/F680A/F681A/E684A) above, with A591D, A594F, A595F, A598E counted along it
T3 sequence (Q86UT6 629-975 limits assumed): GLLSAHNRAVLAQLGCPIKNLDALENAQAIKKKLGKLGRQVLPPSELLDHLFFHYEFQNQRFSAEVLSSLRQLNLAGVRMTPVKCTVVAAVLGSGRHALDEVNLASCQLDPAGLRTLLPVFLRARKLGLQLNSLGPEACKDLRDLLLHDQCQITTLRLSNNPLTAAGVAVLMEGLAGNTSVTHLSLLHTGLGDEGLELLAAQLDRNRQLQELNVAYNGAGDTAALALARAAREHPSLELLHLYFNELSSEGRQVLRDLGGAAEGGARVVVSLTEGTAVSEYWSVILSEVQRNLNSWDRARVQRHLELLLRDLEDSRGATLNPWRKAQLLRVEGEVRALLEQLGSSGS

Row | Compound | function at NLRX1 concluded from the cytokine results (CD4+ T cells) | proportion of IFNγ producing (IFNγ+) CD4+ T cells (CD4+ T cells) | proportion of TNFα producing (TNFα+) CD4+ T cells (CD4+ T cells) | other results
1 | Cc1cccc(Oc2cc(Oc3cccc(C)n3)cc(Oc3nc(C)cc(C)n3)c2)n1 [NX-37, 2-(3,5-bis(6-methylpyridin-2-yloxy)phenoxy)-4,6-dimethylpyrimidine] | specific inhibitors of NLRX1 | increased | increased | binding to NLRX1 by surface plasmon resonance (in words) (Human NLRX1 (NLRX1-WT)): bind to NLRX1; binding to the mutated NLRX1 protein [1]: Loss of binding; change in IL-10 producing cells (CD4+ T cells): Neither small molecule elicited a change; size and dose dependence of the effect on TNFα producing and IFNγ producing cells (CD4+ T cells): dose-dependent effects
2 | Cc1cccnc1Oc1cc(Oc2ccccc2)cc(Oc2ncccc2C)c1 [NX-43, 2,2′-(5-phenoxy-1,3-phenylene)bis(oxy)bis(3-methylpyridine)] | specific inhibitors of NLRX1 | increased | increased | binding to NLRX1 by surface plasmon resonance (in words) (Human NLRX1 (NLRX1-WT)): bind to NLRX1; binding to the mutated NLRX1 protein [1]: Loss of binding; change in IL-10 producing cells (CD4+ T cells): Neither small molecule elicited a change; size and dose dependence of the effect on TNFα producing and IFNγ producing cells (CD4+ T cells): greater effect than NX-37; time after initiation of treatment at which reduction in tumor diameter was observed (CT26 carcinoma cells; 40 mg/kg daily via gavage): less than 10 days; tumor size relative to untreated controls (CT26 carcinoma cells; 40 mg/kg daily via gavage beginning on day 9): reduce; reduction of overall tumor mass (CT26 carcinoma cells; after 12 days of treatment, 40 mg/kg): over 70%; overall tumor burden (as evidenced by the colon weight) [2]: reduced; number of colonic polyps ([2]; post-inflammation treatment): reduced
3 | Cc1cc(O)cnc1Oc1cc(Oc2ccccc2)cc(Oc2ncc(O)cc2C)c1 [NX-44, 6,6′-(5-phenoxy-1,3-phenylene)bis(oxy)bis(5-methyl-3-pyridinol)] | specific inhibitors of NLRX1 | increased | increased | 
4 | Cc1cc(N)cnc1Oc1cc(Oc2ncc(N)cc2C)cc(Oc2ncc(N)cc2C)c1 [NX-45, 6,6′,6″-(benzene-1,3,5-triyltris(oxy))tris(5-methylpyridin-3-amine)] | activators of NLRX1 | reduces | reduces | concentrations at which the significant reduction in IFNγ+ cells occurs (CD4+ T cells; [4]): ≥ 50 nM; concentrations at which the significant reduction in TNFα+ cells occurs (CD4+ T cells; [4]): ≥ 10 nM
5 | Cc1cccnc1Oc1cc(Oc2ncccc2C)cc(Oc2ncccc2C)c1 [NX-50, 1,3,5-tris (3-methylpyridin-2-yloxy)benzene] | activators of NLRX1 | decreased | decreased | 
6 | Cc1cccc(Oc2cc(Oc3ccccc3)cc(Oc3cccc(C)n3)c2)n1 [NX-53, 2,2′-(5-phenoxy-1,3-phenylene)bis(oxy)bis(6-methylpyridine)] |  | weakly increased |  | 
7 | Cc1cccc(Oc2cc(Oc3ccccn3)cc(Oc3cccc(C)n3)c2)n1 [NX-54, 2,2′-(5-(pyridin-2-yloxy)-1,3-phenylene)bis(oxy)bis(6-methylpyridine)] |  | minimal effects at high concentrations |  | 
8 | Cc1cccc(Oc2cc(Oc3cccc(C)n3)cc(Oc3ccccc3C)c2)n1 [NX-55, 2,2′-(5-(6-methylphenoxy)-1,3-phenylene)bis(oxy)bis(6-methylpyridine)] |  | only a small decrease |  | 
9 | Cc1cccc(Oc2cc(Oc3cccc(C)n3)cc(Oc3ccccc3O)c2)n1 [NX-56, 2,2′-(5-(phen-6-ol)oxy-1,3-phenylene)bis(oxy)bis(6-methylpyridine)] |  | weakly increased |  | 
10 | CCCC\C=C/C=C/C=C\CCCCCCCC(=O)O [punicic acid] |  |  |  | published binding affinity to NLRX1 [3]: -6.2 kcal/mol

— patent publication US10676436B2, “NLRX1 ligands” (Landos Biopharma, Inc., priority 2018, dated 2020)
